Test results published in patent US7423017B2, “Method for treating cartilage disorders” (Genentech, Inc., priority 1997, dated 2008).
Positions of bridges follow the written chain, without caps; N, C: chain ends. Residues, ends and D or L forms follow the SMILES beside them. No end group written: not given here.

Assays:
IGFBP-1 [1] = biological target: T1, IGFBP-1 (Homo sapiens, UniProt P08833); assay: BIAcore competition assay: IGFBP-1 binding to IGF-I; design: made in house; host or cells: CHO cells; conditions: for Fold potency reduction IC50 (BP1-01) / IC50 (mut): locked-helix variants
T1 sequence (P08833 26-259): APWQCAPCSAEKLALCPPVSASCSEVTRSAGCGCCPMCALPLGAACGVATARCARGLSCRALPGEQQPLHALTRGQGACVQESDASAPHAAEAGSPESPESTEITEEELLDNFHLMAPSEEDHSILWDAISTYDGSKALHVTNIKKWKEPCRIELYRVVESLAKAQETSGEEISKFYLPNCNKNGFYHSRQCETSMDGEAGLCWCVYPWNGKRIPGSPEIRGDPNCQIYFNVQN
Procedure: Two series of synthetic peptide variants were generated to determine which side chains of the BP1-01 peptide might contribute directly to binding IGFBP-1. In the first series an alanine-scanning approach (Cunningham and Wells, Science, 244: 1081-1085 (1989)) was used to remove that portion of each side chain beyond the beta carbon. The contribution of these atoms to the free energy of binding of the peptide to IGFBP-1 was then assessed by measuring the potency (IC50) of the variant for inhibiting IGFBP-1 binding to IGF-I or IGF-II in a BIAcore™ competition assay, analogous to that described for IGFBP-3.
Peptides were assayed in a BIAcore™ assay as described in WO 98/45427, supra. These inhibition assays (FIG. 35) compared the relative potency of these peptides for blocking the interaction of IGFBP-1 with IGF-1.
The peptide BP1-625 fraction was lyophilized and resuspended in 100 mM HEPES buffer, pH 7.2.

IGFBP-1 [2] = biological target: T1, IGFBP-1; assay: KIRA cell-based assay of IGF-like activity displaced by peptides from IGF-1/IGFBP-1; conditions: 2 nM IGF-1, […] IGFBP-1
Procedure: A cell-based (KIRA) assay was previously described for measuring the amount of IGF-like activity displaced by peptides from mixtures of IGF-1 and binding proteins (Lowman et al., supra, 1998; WO 98/45427, supra). The KIRA assay was used to compare in vitro bioactivity of BP1-16, BP1-02, BP1-25, and BP1-40. […] IGF-1 and peptide were mixed and added to cells expressing IGF receptor for 30 min, then IGFBP-1 was added for an additional 1 h.

IGFBP-1 [3] = biological target: T1, IGFBP-1; assay: BIAcore direct binding kinetics of peptides on immobilized IGFBP-1; design: made in house; host or cells: CHO cells; conditions: for Kd: koff/kon, BIAcore kinetics, read-out: KD ± (SD or SE)
Excerpt: WO 98/45427 published Oct. 15, 1998 discloses the preparation and characterization of the IGFBP-1 displacer peptide BP1-01 ([…]) (SEQ ID NO:26). The kinetics of BP1-01 peptide variants were examined in a BIAcore™ (BIAcore, Inc., Piscataway, N.J.) assay using IGFBP-1 covalently coupled via EDC/NHS (as described by the manufacturer) to a dextran chip. […] The latter implies a half-life for peptide dissociation from IGFBP-1 of approximately 28 sec. The association rate constant is moderately fast, consistent with the notion that the peptide may not undergo significant conformation change upon binding to IGFBP-1.
Inhibition assays for measuring relative potencies of peptides for inhibiting IGFBP-1 binding to IGF-I have been described (e.g., WO 98/45427, supra). Peptides described herein were of sufficient binding affinity to allow for direct measurement of binding affinities by surface plasmon resonance (SPR) using a BIACORE™ system. The direct binding kinetics of IGFBP-1 peptides were measured by injecting a series of 2-fold diluted peptides in running buffer (0.05% TWEEN 20™ in PBS) over a carboxy-methyl (CM) biosensor chip coupled with about 590-1000 RU of IGFBP-1 at a flow rate of 50 μl/min on a BIACORE 2000™ or BIACORE 3000™ surface-plasmon-resonance instrument. The immobilization of IGFBP-1 was performed through EDC/NHS chemistry as described by the manufacturer. Peptides were also injected through a flow cell containing IGFBP-3 as background control. Since the off-rate for most of the peptides is relatively fast (in the range of 2×10^−2 s^−1), off-rate measurement was set for 30 minutes. This allowed for regeneration of IGFBP-1 on the chip by simple dissociation, rather than by addition of eluent. For each dilution of peptides, a global fit of the sensorgram data was performed using a 1:1 Langmuir binding model.

IGFBP-3 [4] = biological target: T2, IGFBP-3 (Homo sapiens, UniProt P17936); assay: phage-ELISA competition assay of g3 peptide-phage clones; assay type: binding; conditions: g3 monovalent display
T2 construct: made in house
T2 sequence (P17936 28-291): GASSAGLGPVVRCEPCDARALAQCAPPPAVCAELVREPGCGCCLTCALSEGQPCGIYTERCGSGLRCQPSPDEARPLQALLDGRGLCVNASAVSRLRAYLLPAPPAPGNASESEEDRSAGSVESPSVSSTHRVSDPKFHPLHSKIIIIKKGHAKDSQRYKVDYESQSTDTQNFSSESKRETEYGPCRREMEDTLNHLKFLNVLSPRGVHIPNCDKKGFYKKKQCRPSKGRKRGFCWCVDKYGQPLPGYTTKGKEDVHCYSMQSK
Excerpt: A third clone, 3Ai.2, represents a new peptide sequence that was not identified from g8 display.

IGFBP-3 [5] = biological target: T2, IGFBP-3; assay: IGF-1 blocking phage assay: peptide-phage binding to coated IGFBP-3 with/without IGF-1; conditions: 100 nM IGF-1; 50-fold dilution of phage
Procedure: IGFBP-3 was coated directly onto MAXISORP198 plates as above. Phage from clonal cultures were mixed with IGF-1 (100 nM final concentration), and incubated with the immobilized IGFBP-3 for 1 hour at room temperature. The plates were then washed ten times, as above, and a solution of rabbit anti-phage antibody mixed with a goat-anti-rabbit conjugate of horseradish peroxidase was added. After an incubation of 1 hour at room temperature, the plates were developed with a chromogenic substrate, o-phenylenediamine (Sigma). The reaction was stopped with addition of ½ volume of 2.5 M H2SO4. Optical density at 490 nm was measured on a spectrophotometric plate reader.
In each case, the phagemid clone was grown from a single colony overnight at 37° C. in a culture volume of 5 ml. The phage particles were precipitated and resuspended in 0.5 ml of PBS buffer. A 50-fold dilution of each phage solution was made into PBS/TWEEN™ buffer, and the phage were incubated with or without 100 nM IGF-1 on an IGFBP-3-coated MAXISORP™ plate.
In each case, the phagemid clone was grown from a single colony overnight at 37° C. in a culture volume of 5 ml. The phage particles were prepared as described above.

acRAGPLEWLAEKYFE (Ac-RAGPLEWLAEKYFE; bridge 6-14; not fully specified) [(i + 8)C]
Fold potency reduction IC50 (BP1-01) / IC50 (mut) (IGFBP-1 [1]): 6

CC(C)C[C@@H]1NC(=O)[C@H](Cc2c[nH]c3ccccc23)NC(=O)[C@H](CCC(N)=O)NC(=O)[C@H](CC(C)C)NC(=O)[C@@H]2CCCN2C(=O)CNC(=O)[C@H](C)NC(=O)[C@H](CCCNC(=N)N)NC(=O)[C@@H](NC(=O)CNC(=O)[C@@H](NC(=O)[C@H](CCC(=O)O)NC(=O)[C@@H](N)CO)C(C)C)CSSC[C@@H](C(=O)N[C@@H](CCC(=O)O)C(=O)N[C@@H](CCCCN)C(=O)N[C@@H](Cc2ccc(O)cc2)C(=O)N[C@@H](Cc2ccccc2)C(=O)NCC(=O)O)NC1=O [BP1-02] (H-SEVGCRAGPLQWLCEKYFG-OH; disulfide 5-14; N-terminus and C-terminus assumed)
EC20 (concentration at which 20% of maximal IGF-1 activity is observed) (IGFBP-1 [2]): 150 to 200 nM | half-life for peptide dissociation from IGFBP-1 (IGFBP-1 [3]): approximately 28 sec | Kd (IGFBP-1 [3]): 210 ± 46 nM | kon (IGFBP-1 [3]; peptide on immobilized IGFBP-1, read-out: association rate constant): 230000 M⁻¹ s⁻¹

CC(C)C[C@@H]1NC(=O)[C@H](Cc2c[nH]c3ccccc23)NC(=O)[C@H](CCC(N)=O)NC(=O)[C@H](CC(C)C)NC(=O)[C@@H]2CCCN2C(=O)CNC(=O)[C@H](C)NC(=O)[C@H](CCCNC(=N)N)NC(=O)[C@@H](N)CSSC[C@@H](C(=O)N[C@@H](CCC(=O)O)C(=O)N[C@@H](CCCCN)C(=O)N[C@@H](Cc2ccc(O)cc2)C(=O)N[C@@H](Cc2ccccc2)C(=O)NCC(N)=O)NC1=O [BP1-01] (H-CRAGPLQWLCEKYFG-NH2; disulfide 1-10)
Fold potency reduction IC50 (BP1-01) / IC50 (mut) (IGFBP-1 [1]): 1

EESECFEGPGYVICGLVG [g3-4B3.3]
apparent affinity in phage-ELISA competition assays (IGFBP-3 [4]): < 100 nM

GQQSCAAGPLQWLCEHYFSTYGR (disulfide 5-14 (inferred)) [BP1-625]
improved potency over BP1-01 (IGFBP-1 [1]; 9-10 nM IGFBP-1): about 20 fold

acRAGPLEWLAEKYEG (Ac-RAGPLEWLAEKYEG; bridge 6-13; not fully specified) [(i + 7)D]
Fold potency reduction IC50 (BP1-01) / IC50 (mut) (IGFBP-1 [1]): 8

CC(C)C[C@@H]1NC(=O)[C@H](Cc2c[nH]c3ccccc23)NC(=O)[C@H](CCC(N)=O)NC(=O)[C@H](CC(C)C)NC(=O)[C@@H]2CCCN2C(=O)CNC(=O)[C@H](C)NC(=O)[C@H](CCCNC(=N)N)NC(=O)[C@@H](NC(=O)[C@H](CO)NC(=O)[C@H](CCC(N)=O)NC(=O)[C@H](CCC(N)=O)NC(=O)CN)CSSC[C@@H](C(=O)N[C@@H](CCC(=O)O)C(=O)N[C@@H](CCCCN)C(=O)N[C@@H](Cc2ccc(O)cc2)C(=O)N[C@@H](Cc2ccccc2)C(=O)N[C@@H](CO)C(=O)N[C@H](C(=O)N[C@@H](Cc2ccc(O)cc2)C(=O)O)[C@@H](C)O)NC1=O [BP1-40] (H-GQQSCRAGPLQWLCEKYFSTY-OH; disulfide 5-14; N-terminus and C-terminus assumed)
EC20 (concentration at which 20% of maximal IGF-1 activity is observed) (IGFBP-1 [2]): 10 to 20 nM | Kd (IGFBP-1 [3]): 27 ± 21 nM

VAWEVCWDRHDQGYICTTDS [g3-4D3.11]
apparent affinity in phage-ELISA competition assays (IGFBP-3 [4]): < 100 nM

VAWEVCWDRHDQGYICTTDS [4D3.11]
inhibited for binding to IGFBP-3 (phage clone with vs without IGF-1) (IGFBP-3 [5]): 5%

acLEWLAEKYFE (Ac-LEWLAEKYFE; bridge 2-10) [(i + 8)A]
Fold potency reduction IC50 (BP1-01) / IC50 (mut) (IGFBP-1 [1]): >200

SGGAIYMPVEQFIAFMAVGK [23A3.5]
inhibited for binding to IGFBP-3 (phage clone with vs without IGF-1) (IGFBP-3 [5]): about 20%

SGGAIYWPVEQFIAFMAVGK [23A3.3]
inhibited for binding to IGFBP-3 (phage clone with vs without IGF-1) (IGFBP-3 [5]): about 20%

CC(C)C[C@@H]1NC(=O)[C@H](Cc2c[nH]c3ccccc23)NC(=O)[C@H](CCC(N)=O)NC(=O)[C@H](CC(C)C)NC(=O)[C@@H]2CCCN2C(=O)CNC(=O)[C@H](C)NC(=O)[C@H](CCCNC(=N)N)NC(=O)[C@@H](NC(=O)[C@@H](NC(=O)[C@H](CCCNC(=N)N)NC(=O)[C@H](C)NC(=O)[C@@H](N)CCC(=O)O)C(C)C)CSSC[C@@H](C(=O)N[C@@H](CCC(=O)O)C(=O)N[C@@H](CCCCN)C(=O)N[C@@H](Cc2ccc(O)cc2)C(=O)N[C@@H](Cc2ccccc2)C(N)=O)NC1=O [BP1-20] (H-EARVCRAGPLQWLCEKYF-NH2; disulfide 5-14; N-terminus assumed)
Kd (IGFBP-1 [3]): 33 ± 15 nM

acRPLEWLAEKYFE (Ac-RPLEWLAEKYFE; bridge 4-12) [(i + 8)B]
Fold potency reduction IC50 (BP1-01) / IC50 (mut) (IGFBP-1 [1]): 8

CC(C)C[C@@H]1NC(=O)[C@H](Cc2c[nH]c3ccccc23)NC(=O)[C@H](CCC(N)=O)NC(=O)[C@H](CC(C)C)NC(=O)[C@@H]2CCCN2C(=O)CNC(=O)[C@H](C)NC(=O)[C@H](CCCNC(=N)N)NC(=O)[C@@H](NC(=O)CNC(=O)[C@@H](NC(=O)[C@H](CCC(=O)O)NC(=O)[C@@H](N)CO)C(C)C)CSSC[C@@H](C(=O)N[C@@H](CCC(=O)O)C(=O)N[C@@H](CCCCN)C(=O)N[C@@H](Cc2ccc(O)cc2)C(=O)N[C@@H](Cc2ccccc2)C(=O)N[C@@H](CO)C(=O)N[C@H](C(=O)N[C@@H](Cc2ccc(O)cc2)C(N)=O)[C@@H](C)O)NC1=O [BP1-21A] (H-SEVGCRAGPLQWLCEKYFSTY-NH2; disulfide 5-14; N-terminus assumed)
Kd (IGFBP-1 [3]): 41 ± 17 nM | IGF-I Inhibition IC50 (114)/IC50 (mut) (IGFBP-1 [1]; relative to BP1-14): 3

CC(C)C[C@@H]1NC(=O)[C@H](Cc2c[nH]c3ccccc23)NC(=O)[C@H](CCC(N)=O)NC(=O)[C@H](CC(C)C)NC(=O)[C@@H]2CCCN2C(=O)CNC(=O)[C@H](C)NC(=O)[C@H](CCCNC(=N)N)NC(=O)[C@@H](NC(=O)[C@@H](NC(=O)[C@H](CCCNC(=N)N)NC(=O)[C@H](C)NC(=O)[C@@H](N)CCC(=O)O)C(C)C)CSSC[C@@H](C(=O)N[C@@H](CCC(=O)O)C(=O)N[C@@H](CCCCN)C(=O)N[C@@H](Cc2ccc(O)cc2)C(=O)N[C@@H](Cc2ccccc2)C(=O)N[C@@H](CO)C(=O)N[C@H](C(=O)N[C@@H](Cc2ccc(O)cc2)C(=O)O)[C@@H](C)O)NC1=O [BP1-25] (H-EARVCRAGPLQWLCEKYFSTY-OH; disulfide 5-14; N-terminus and C-terminus assumed)
EC20 (concentration at which 20% of maximal IGF-1 activity is observed) (IGFBP-1 [2]): 10 to 20 nM | Kd (IGFBP-1 [3]): 42 ± 11 nM
